Reference: patent US20120015901A1, “METHODS AND PREPARATIONS FOR PROTECTING CRITICALLY ILL PATIENTS” (priority 2009, published 2012)
Where two headings read alike, the source gives them in different places.

Assays:
[1] = system: wild type yeast (BY4741) and null mutants; test: Yeast chronological aging, survival plating (clonogenicity); format: cell-based
Protocol: Experiments were carried out in BY4741 (MATa his3Δ1 leu2Δ0 met15Δ0 ura3Δ0) and respective null mutants, obtained from Euroscarf. The double mutant Δiki3Δsas3 was generated according to Gueldener at al. (2002) Nucleic Acids Res. 30, e23 by using gene-specific URA3-knockout cassette, amplified by PCR with pUG72 as template (Lovaas & Carlin (1991) Free Radic Biol Med 11, 455-46.). […] All spe1 double mutant strains were obtained through mating and sporulation of BY4741 Δspe1 with the respective BY4742 ([…]) single mutant strains. Single and double mutant strains were verified for correct gene deletion by PCR and further checked for consistent auxotrophies. […] Strains were grown at 28° C. on SC medium containing 0.17% yeast nitrogen base (Difco), 0.5% (NH4)2SO4 and 30 mg/l of all amino acids (except 80 mg/l histidine and 200 mg/l leucine), 30 mg/l adenine, and 320 mg/l uracil with 2% glucose (SCD). […] To construct NHP6A-EGFP in pUG35-Ura (giving rise to a C-terminally tagged chimeric fusion protein under control of the met25-Promotor) the insert was amplified by PCR using genomic DNA from BY4741 as template and cloned into pUG35 using the EcoRI restriction site. The EGFP-ATG8 construct in pUG36-Ura (N-terminally tagged fusion protein) was similarly generated, using EcoRI and ClaI restriction sites.
In case of experiments with Δspe1 (FIG. 24 A-E), all strains were inoculated to 5·10^4 cells/ml. […] Therefore, for calculation of survival rates in experiments using Δiki3Δsas3, cell numbers of each sample were determined after two pulse of sonication on ice with Sonifier 250 from Benson (Duty Cycle: 35; Output Control: 2.5). Tests for apoptotic (TUNEL and Annexin V staining) and necrotic (PI staining) markers as well as markers for oxidative stress (DHE staining) were performed as described in Dod et al. (1982) Eur J Biochem 121, 401-405). For quantifications using flow cytometry (BD FACSAria), 30,000 cells were evaluated and analyzed with BD FACSDiva software. Spermidine (S4139, Sigma, Austria) and putrescine (P5780, Sigma, Austria; 1 mM final concentration) were added to stationary cultures at day 1 of the aging experiments (24 h after inoculation). 1 M aqueous stock solution of spermidine was stored in one use aliquots at −20° C. for no longer than 1 month. For adjustment of extracellular pH (pHex) to 6 (±0.5), the required amount of sodium hydroxide was added 30 h after inoculation. The pHex was maintained at approximately 6 (±0.5) throughout the aging.

acute liver injury = conditions: cited from earlier work

NCCCCN [putrescine, 1,4-diamino-butane]
chronological life span of polyamine depleted cells [1]: restored | effect on acute liver injury (acute liver injury; administered 2, 5 and 8 hours after injection of cadmium chloride): protective effect | effect on acute liver injury (acute liver injury; administered 12, 15 and 18 h after cadmium injection): did not provide a protective effect
